{"source": "patent US9278058B2", "about": "“Melanin production inhibitor” (Shiseido Company, Ltd., priority 2012, dated 2016)", "key": {"Mouse B16 melanoma cells [1]": {"system": "Mouse B16 melanoma cells", "experiment": "Cell proliferation test (alamar blue)", "format": "cell-based", "conditions": "for No. of Cells (%): 3 days, solvent-only group = 100", "method": "As will be described in detail in the subsequent examples, screening for aromatic components of the melanin formation inhibitor was carried out by allowing various candidate aromatics to act on B16 melanoma, and evaluating cytotoxicity and the ratio of the amount of melanin (%) in comparison with a control (addition of solvent only). Mouse B16 melanoma cells were disseminated in a 6-well plate at 100,000 cells/well. On the following day, a test substance solution (solvent: ethyl alcohol) was added and used in a cell proliferation test and melanin formation inhibition test. A nature identical synthetic aromatic in the form of phenylethyl cinnamate (Toyotama International Inc.) was used for the test substance, and it was used in the tests indicated below. After aspirating off the medium 3 days after adding the test substance solution, 1 ml of EMEM medium containing 10% alamar blue solution was added and allowed to react at 37° C. 30 minutes later, 100 μl were transferred to a […] followed by measurement of fluorescence at an excitation wavelength of 544 nm and measurement wavelength of 590 nm. The ratio of the number of cells (% number of cells) of a test substance addition group based on a value of 100 for a test substance non-addition group (addition of solvent only) was calculated by using that value as a relative value of the number of viable cells. A higher value for % number of cells means a lower level of cytotoxicity."}, "Mouse B16 melanoma cells [2]": {"system": "Mouse B16 melanoma cells", "experiment": "Melanin formation inhibition test", "format": "cell-based", "conditions": "for Ratio of Amount of Melanin (%): 3 days, solvent-only group = 100", "method": "As will be described in detail in the subsequent examples, screening for aromatic components of the melanin formation inhibitor was carried out by allowing various candidate aromatics to act on B16 melanoma, and evaluating cytotoxicity and the ratio of the amount of melanin (%) in comparison with a control (addition of solvent only). Mouse B16 melanoma cells were disseminated in a 6-well plate at 100,000 cells/well. On the following day, a test substance solution (solvent: ethyl alcohol) was added and used in a cell proliferation test and melanin formation inhibition test. A nature identical synthetic aromatic in the form of phenylethyl cinnamate (Toyotama International Inc.) was used for the test substance, and it was used in the tests indicated below. The medium was aspirated off 3 days after addition of test substance, and after washing using a buffer (50 mM phosphate buffer, pH 6.8), 1 M NaOH solution was added to lyse the cells followed by measurement of absorbance at 475 nm. The ratio of the amount of melanin (%) of a test substance addition group based on a value of 100 for a test substance non-addition group (addition of solvent only) was calculated using that value as a relative value of the amount of melanin. A lower value for the ratio of the amount of melanin means higher melanin formation inhibitory effects."}, "[3]": {"conditions": "test substance final concentration 1 ppm"}, "[4]": {"conditions": "test substance final concentration 2 ppm"}}}
{"smiles": "O=C(/C=C/c1ccccc1)OCCc1ccccc1", "note": "[Phenylethyl Cinnamate, 2-Phenylethyl 3-phenyl • propenoate]", "values": [{"measurement": "cytotoxicity (in words)", "setting": "Mouse B16 melanoma cells [1]; summary of Table 1 results", "value": "hardly any cytotoxicity"}, {"measurement": "No. of Cells (%)", "setting": "Mouse B16 melanoma cells [1]; [3]", "value": 94, "unit": "%"}, {"measurement": "No. of Cells (%)", "setting": "Mouse B16 melanoma cells [1]; [4]", "value": 92, "unit": "%"}, {"measurement": "melanin formation inhibitory effects (in words)", "setting": "Mouse B16 melanoma cells [2]; summary of Table 1 results", "value": "superior melanin formation inhibitory effects"}, {"measurement": "Ratio of Amount of Melanin (%)", "setting": "Mouse B16 melanoma cells [2]; [3]", "value": 82, "unit": "%"}, {"measurement": "Ratio of Amount of Melanin (%)", "setting": "Mouse B16 melanoma cells [2]; [4]", "value": 74, "unit": "%"}]}
